tested on: KRAS G12V dependent lung adenocarcinoma cell line, NCI-H441; assay: Cellular pERK (Thr202/Tyr204) FRET/HTRF assay; assay type: cell-based; details: Homo sapiens, NCI-H441, cellular pERK (Thr202/Tyr204) HTRF, NCI-H441 cells
In short: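 NCI-H441 cells (KRAS G12V) plated overnight at 37 °C, then exposed to compounds for 1 hr at 37 °C, 5% CO2; DMSO as negative control. Lysates read by Eu-cryptate/d2 sandwich FRET (665 nm) for ERK1/2 phosphorylated at Thr202/Tyr204; IC50 from curve fit.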

Question: For `[2H]C([2H])(F)Oc1c(F)ccc2cccc(-c3ncc4c(N5CCOC[C@H]6[C@H](F)[C@H]65)nc(OC[C@]56CC(=C)CN5CCC65CC5)nc4c3F)c12` [Example 384, (1S,7S,8S)-8-fluoro-2-(8-fluoro-7-(7-fluoro-8-(fluoromethoxy-d2)naphthalen-1-yl)-2-(((R)-6′-methylenetetrahydrospiro[cyclopropane-1,1′-pyrrolizin]-7a′(5′H)-yl)methoxy)pyrido[4,3-d]pyrimidin-4-yl)-5-oxa-2-azabicyclo[5.1.0]octane], which IC50 is on record?
Answer: < 50 nM

Question: `[2H]C([2H])(Oc1nc(N2CCOC[C@H]3[C@H](F)[C@H]32)c2cc(Cl)c(-c3nc(N)cc(C)c3C(F)(F)F)c(F)c2n1)[C@@]12CCCN1C[C@H](F)C2` [Example 159, 6-(6-Chloro-8-fluoro-4-((1S,7S,8S)-8-fluoro-5-oxa-2-azabicyclo[5.1.0]octan-2-yl)-2-(((2R,7aS)-2-fluorotetrahydro-1H-pyrrolizin-7a(5H)-yl)methoxy-d2)quinazolin-7-yl)-4-methyl-5-(trifluoromethyl)pyridin-2-amine] was tested. Which IC50 did it give?
Answer: < 50 nM

Question: With `C#Cc1c(F)ccc2cc(N)cc(-c3ncc4c(N5CCOC[C@H]6[C@H](F)[C@H]65)nc(OC[C@@]56CCCN5C[C@@H](C)C6)nc4c3F)c12` (single isomer, unassigned) [Example 209] as the molecule, how does the IC50 read?
Answer: < 50 nM

Question: `[2H]C([2H])(Oc1nc(N2CCOC[C@H]3[C@H](F)[C@H]32)c2cnc(-c3cc(O)cc(C)c3C(F)(F)F)c(F)c2n1)[C@@]12CCCN1C[C@H](F)C2` [Example 335, 3-(8-fluoro-4-((1S,7S,8S)-8-fluoro-5-oxa-2-azabicyclo[5.1.0]octan-2-yl)-2-(((2R,7aS)-2-fluorotetrahydro-1H-pyrrolizin-7a(5H)-yl)methoxy-d2)pyrido[4,3-d]pyrimidin-7-yl)-5-methyl-4-(trifluoromethyl)phenol] was tested. Which IC50 did it give?
Answer: < 50 nM

Question: How did the IC50 turn out when `C#Cc1c(F)ccc2cc(N)cc(-c3ncc4c(N5CCOC[C@H]6[C@H](F)[C@H]65)nc(OC[C@@]56CCCN5CC(=C(F)F)C6)nc4c3C)c12` [Example 428, 4-(2-(((S)-2-(difluoromethylene)tetrahydro-1H-pyrrolizin-7a(5H)-yl)methoxy)-4-((1S,7S,8S)-8-fluoro-5-oxa-2-azabicyclo[5.1.0]octan-2-yl)-8-methylpyrido[4,3-d]pyrimidin-7-yl)-5-ethynyl-6-fluoronaphthalen-2-amine] was run?
Answer: < 50 nM

Question: `C#Cc1c(F)ccc2cc(O)cc(-c3ncc4c(N5CCCO[C@@H]6C[C@@H]65)nc(OC[C@@]5(C)CCCN5)nc4c3F)c12` [Example 282, 4-(4-((1R,7S)-2-oxa-6-azabicyclo[5.1.0]octan-6-yl)-8-fluoro-2-(((R)-2-methylpyrrolidin-2-yl)methoxy)pyrido[4,3-d]pyrimidin-7-yl)-5-ethynyl-6-fluoronaphthalen-2-ol] was tested. Which IC50 did it give?
Answer: 500 to 10000 nM

Question: For `[2H]c1c(F)c(C#C)c2c(-c3ncc4c(N5CCOC[C@H]6[C@H](F)[C@H]65)nc(OC([2H])([2H])[C@@]56CCCN5C[C@H](F)C6)nc4c3F)cc(N)cc2c1[2H]` [Example 273, 5-ethynyl-6-fluoro-4-(8-fluoro-4-((1S,7S,8S)-8-fluoro-5-oxa-2-azabicyclo[5.1.0]octan-2-yl)-2-(((2R,7aS)-2-fluorotetrahydro-1H-pyrrolizin-7a(5H)-yl)methoxy-d2)pyrido[4,3-d]pyrimidin-7-yl)naphthalen-7,8-d2-2-amine], which IC50 is on record?
Answer: < 50 nM

Question: With `[2H]C([2H])(Oc1nc(N2CCOC[C@H]3[C@H](F)[C@H]32)c2c(O)nc(-c3cc(N)cc4ccc(F)c(C#C)c34)c(F)c2n1)[C@@]12CCCN1C[C@H](F)C2` [Example 401, 7-(3-amino-8-ethynyl-7-fluoronaphthalen-1-yl)-8-fluoro-4-((1S,7S,8S)-8-fluoro-5-oxa-2-azabicyclo[5.1.0]octan-2-yl)-2-(((2R,7aS)-2-fluorotetrahydro-1H-pyrrolizin-7a(5H)-yl)methoxy-d2)pyrido[4,3-d]pyrimidin-5-ol] as the molecule, how does the IC50 read?
Answer: 500 to 10000 nM

Question: How did the IC50 turn out when `[2H]C([2H])(Oc1nc(N2CCOC[C@H]3[C@H](F)[C@H]32)c2c(F)nc(-c3cc(N)cc4ccc(F)c(C#C)c34)c(F)c2n1)[C@@]12CCCN1C[C@H](F)C2` [Example 303, 4-(5,8-Difluoro-4-((1S,7S,8S)-8-fluoro-5-oxa-2-azabicyclo[5.1.0]octan-2-yl)-2-(((2R,7aS)-2-fluorotetrahydro-1H-pyrrolizin-7a(5H)-yl)methoxy-d2)pyrido[4,3-d]pyrimidin-7-yl)-5-ethynyl-6-fluoronaphthalen-2-amine] was run?
Answer: < 50 nM

Question: Which IC50 does the source give for `[2H]C([2H])([2H])Oc1c(F)c(F)c(F)c2cccc(-c3ncc4c(N5CCOC[C@H]6[C@H](F)[C@H]65)nc(OC([2H])([2H])[C@@]56CCCN5C[C@H](F)C6)nc4c3F)c12` [Example 123, (1S,7S,8S)-8-fluoro-2-(8-fluoro-2-(((2R,7aS)-2-fluorotetrahydro-1H-pyrrolizin-7a(5H)-yl)methoxy-d2)-7-(5,6,7-trifluoro-8-(methoxy-d3)naphthalen-1-yl)pyrido[4,3-d]pyrimidin-4-yl)-5-oxa-2-azabicyclo[5.1.0]octane] here?
Answer: 50 to 500 nM

Question: With `C#Cc1c(F)ccc2cc(N)cc(-c3ncc4c(N5CCOC[C@H]6[C@H](F)[C@H]65)nc(OC[C@]56C[C@]7(C[C@@H]7F)CN5CCC65CC5)nc4c3F)c12` (single isomer, unassigned) [Example 232] as the molecule, how does the IC50 read?
Answer: < 50 nM

Question: How did the IC50 turn out when `Nc1cc(Cl)c(C(F)(F)F)c(-c2ncc3c(N4CCCC[C@@H]5[C@@H](F)[C@@H]54)nc(OC[C@@]45CCCN4CC(=C(F)F)C5)nc3c2F)c1` [Example 370, 3-chloro-5-(2-(((S)-2-(difluoromethylene)tetrahydro-1H-pyrrolizin-7a(5H)-yl)methoxy)-8-fluoro-4-((1R,7S,8R)-8-fluoro-2-azabicyclo[5.1.0]octan-2-yl)pyrido[4,3-d]pyrimidin-7-yl)-4-(trifluoromethyl)aniline] was run?
Answer: 500 to 10000 nM

Question: `[2H]C([2H])(Oc1nc(N2CCOC[C@H]3[C@H](F)[C@H]32)c2cnc(-c3cc(N)cc4ccc(F)c(C#C)c34)c(F)c2n1)C12CCCN1CCC2` [Example 213, 5-ethynyl-6-fluoro-4-(8-fluoro-4-((1S,7S,8S)-8-fluoro-5-oxa-2-azabicyclo[5.1.0]octan-2-yl)-2-((tetrahydro-1H-pyrrolizin-7a(5H)-yl)methoxy-d2)pyrido[4,3-d]pyrimidin-7-yl)naphthalen-2-amine] was tested. Which IC50 did it give?
Answer: < 50 nM

Question: `C#Cc1c(F)ccc2cc(N)cc(-c3ncc4c(N5CCOC[C@H]6[C@H](F)[C@H]65)nc(OC[C@]56C[C@@H](F)CN5C[C@@H](CNC(C)=O)C6)nc4c3F)c12` [Example 257, N-(((2R,6R,7aS)-7a-(((7-(3-amino-8-ethynyl-7-fluoronaphthalen-1-yl)-8-fluoro-4-((1S,7S,8S)-8-fluoro-5-oxa-2-azabicyclo[5.1.0]octan-2-yl)pyrido[4,3-d]pyrimidin-2-yl)oxy)methyl)-6-fluorohexahydro-1H-pyrrolizin-2-yl)methyl)acetamide] was tested. Which IC50 did it give?
Answer: 50 to 500 nM

Question: How did the IC50 turn out when `C#Cc1c(F)ccc2cccc(-c3ncc4c(N5CCCC[C@H]6[C@H](F)[C@H]65)nc(OC[C@]56CC(=C(F)F)CN5CCC65CC5)nc4c3F)c12` [Example 405, (R)-6′-(Difluoromethylene)-7a′-(((7-(8-ethynyl-7-fluoronaphthalen-1-yl)-8-fluoro-4-((1S,7R,8S)-8-fluoro-2-azabicyclo[5.1.0]octan-2-yl)pyrido[4,3-d]pyrimidin-2-yl)oxy)methyl)hexahydrospiro[cyclopropane-1,1′-pyrrolizine]] was run?
Answer: < 50 nM

same assay, conditions: Homo sapiens, NCI-H441, pERK HTRF, NCI-H441 cells (KRAS G12V)

Question: `[2H]C([2H])(Oc1nc(N2CCOC[C@@H]3[C@@H](F)[C@@H]32)c2cnc(-c3cccc4ccc(F)c(C#C)c34)c(F)c2n1)[C@@]12CCCN1C[C@H](F)C2` [Example 46, (1R,7R,8R)-2-(7-(8-ethynyl-7-fluoronaphthalen-1-yl)-8-fluoro-2-(((2R,7aS)-2-fluorotetrahydro-1H-pyrrolizin-7a(5H)-yl)methoxy-d2)pyrido[4,3-d]pyrimidin-4-yl)-8-fluoro-5-oxa-2-azabicyclo[5.1.0]octane] was tested. Which IC50 did it give?
Answer: 500 to 10000 nM

Question: With `[2H]C([2H])([2H])Oc1c(F)c(F)c(F)c2cc(N)cc(-c3ncc4c(N5CCCC[C@H]6[C@H](F)[C@H]65)nc(OC([2H])([2H])[C@@]56CCCN5C[C@H](F)C6)nc4c3F)c12` [Example 69, 6,7,8-Trifluoro-4-(8-fluoro-4-((1S,7R,8S)-8-fluoro-2-azabicyclo[5.1.0]octan-2-yl)-2-(((2R,7aS)-2-fluorotetrahydro-1H-pyrrolizin-7a(5H)-yl)methoxy-d2)pyrido[4,3-d]pyrimidin-7-yl)-5-(methoxy-d3)naphthalen-2-amine] as the molecule, how does the IC50 read?
Answer: < 50 nM

same assay, conditions: cellular pERK (Thr202/Tyr204) HTRF, NCI-H441 cells

Question: Which IC50 does the source give for `[2H]C([2H])(Oc1nc(N2CCOC[C@H]3[C@H](F)[C@H]32)c2cc(C#N)c(-c3ccc(F)c4sc(N)c(C#N)c34)c(F)c2n1)[C@@]12CCCN1C[C@H](F)C2` (atropisomer, axis not shown; (aS)) [Example 349, (S)-7-(2-amino-3-cyano-7-fluorobenzo[b]thiophen-4-yl)-8-fluoro-4-((1S,7S,8S)-8-fluoro-5-oxa-2-azabicyclo[5.1.0]octan-2-yl)-2-(((2R,7aS)-2-fluorotetrahydro-1H-pyrrolizin-7a(5H)-yl)methoxy-d2)quinazoline-6-carbonitrile] here?
Answer: < 50 nM

Question: Which IC50 does the source give for `[2H]C([2H])(Oc1nc(N2CCOC[C@H]3[C@H](F)[C@H]32)c2cc(C(F)(F)F)c(-c3ccc(F)c4sc(N)c(C#N)c34)c(F)c2n1)[C@@]12CCCN1C[C@H](F)C2` (atropisomer, axis not shown; (aS)) [Example 390, 2-amino-7-fluoro-4-((R)-8-fluoro-4-((1S,7S,8S)-8-fluoro-5-oxa-2-azabicyclo[5.1.0]octan-2-yl)-2-(((2R,7aS)-2-fluorotetrahydro-1H-pyrrolizin-7a(5H)-yl)methoxy-d2)-6-(trifluoromethyl)quinazolin-7-yl)benzo[b]thiophene-3-carbonitrile] here?
Answer: < 50 nM

From US20250282799A1, “SUBSTITUTED PYRIDO[4,3-d]PYRIMIDINES AS KRAS MODULATORS” (Alterome Therapeutics, Inc., priority 2023, published 2025)
